Results on 30 compounds are retold here after patent US8106055B2, “Substituted amide compounds” (Gruenenthal GmbH, priority 2007, dated 2012).

In assay [1] the target is T1, serotonin (5-HT) reuptake (Rattus norvegicus, UniProt P31652).
T1 construct: synaptosomes are freshly isolated from areas of the rat brain; from tissue; host or cells: rat brain synaptosomes (P2 fraction)
Briefly: Inhibition of serotonin (5HT) reuptake in synaptosomes from rat brain. It is filed as biochemical. The following applies: test concentration of 10 μM; for inhibition at 10 µM: read-out: 5-HT (inhibition of reuptake of serotonin, % inhibition). The essentials: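 Compounds screened at 10 μM and reported as percent inhibition of serotonin uptake. Uptake measured in a freshly prepared P2 synaptosomal fraction from rat brain.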

Assay [2] has as its target T2, bradykinin 1 receptor (B1R) of the rat (Rattus norvegicus, UniProt P97583).
T2 construct: expressed in transfected cells; host or cells: CHO K1 cells
T2 sequence (P97583 1-337): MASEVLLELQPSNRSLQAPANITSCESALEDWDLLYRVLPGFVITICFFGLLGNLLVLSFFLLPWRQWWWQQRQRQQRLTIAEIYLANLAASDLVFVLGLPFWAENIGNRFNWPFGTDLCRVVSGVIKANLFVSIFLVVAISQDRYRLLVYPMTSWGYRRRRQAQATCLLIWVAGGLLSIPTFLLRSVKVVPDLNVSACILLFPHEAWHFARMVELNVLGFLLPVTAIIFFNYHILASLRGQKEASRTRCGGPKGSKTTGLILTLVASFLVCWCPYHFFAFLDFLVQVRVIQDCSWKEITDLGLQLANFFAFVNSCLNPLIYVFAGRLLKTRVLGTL
The assay is described as follows: Functional investigation on the rat bradykinin 1 receptor (B1R), Ca2+ FLIPR assay in CHO K1 rB1R cells. It is filed as cell-based. The following applies: test substance 10 μM, Ca2+ FLIPR, CHO K1 rB1R cells; for B1R Ant. r [10 μM] % Inhibition: B1R antagonism rat; for inhibition at 10 µM: CHO-K1, B1R antagonism rat, read-out: B1R Ant. r [10 μM] % Inhibition. The essentials: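 Fluo-4 Ca2+ readout, peak fluorescence. Stable CHO K1 transfectants; compound pre-incubated 10-20 min, then EC80 agonist—Lys-Des-Arg9-BK for hB1R, Des-Arg9-BK for rB1R. % inhibition vs maximal inhibition; IC50 from multiple concentrations, duplicate/triplicate, ≥2 independent runs.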

T1 sequence (P31652 whole entry): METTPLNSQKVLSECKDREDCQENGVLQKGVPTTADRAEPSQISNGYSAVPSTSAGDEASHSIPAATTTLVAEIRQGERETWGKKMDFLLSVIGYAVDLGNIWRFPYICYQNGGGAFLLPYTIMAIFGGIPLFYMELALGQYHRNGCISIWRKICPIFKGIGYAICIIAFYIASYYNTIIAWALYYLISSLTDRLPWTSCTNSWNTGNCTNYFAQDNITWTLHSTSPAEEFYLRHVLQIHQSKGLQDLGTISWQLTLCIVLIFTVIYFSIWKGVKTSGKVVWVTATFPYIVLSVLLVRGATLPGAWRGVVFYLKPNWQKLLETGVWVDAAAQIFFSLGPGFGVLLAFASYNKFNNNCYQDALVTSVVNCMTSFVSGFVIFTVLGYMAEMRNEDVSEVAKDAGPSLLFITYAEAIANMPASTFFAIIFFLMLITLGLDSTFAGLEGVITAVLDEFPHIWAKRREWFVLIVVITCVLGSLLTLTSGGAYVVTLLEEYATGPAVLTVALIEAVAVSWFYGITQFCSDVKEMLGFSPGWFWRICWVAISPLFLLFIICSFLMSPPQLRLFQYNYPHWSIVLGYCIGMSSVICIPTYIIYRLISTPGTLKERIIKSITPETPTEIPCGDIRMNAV

Take `CN(C)C(c1cccc(F)c1)C1CCC(CCNC(=O)COCCC2CCN(S(=O)(=O)c3ccccc3)CC2)CC1` (stereo not drawn) [Example 543]: the “5-HT (inhibition of reuptake of serotonin, % inhibition)” value in assay [1] was 76%. The “B1R Ant. r [10 μM] % Inhibition” value in assay [2] worked out at 15%.
In the case of `COc1ccc(S(=O)(=O)N2CCCCC2COCC(=O)NCC2CCC(C(CCc3ccccc3)N(C)C)CC2)cc1OC` (stereo not drawn) [Example 559], in assay [1] (10 µM), the “5-HT (inhibition of reuptake of serotonin, % inhibition)” value came to 84%. Also, the “B1R Ant. r [10 μM] % Inhibition” value in assay [2] was −12%.
Consider `CN(C)C(CCc1ccccc1)C1CCC(CNC(=O)COC2CCN(S(=O)(=O)c3ccccc3)CC2)CC1` (stereo not drawn) [Example 578], for which the “5-HT (inhibition of reuptake of serotonin, % inhibition)” value in assay [1] came to 94%. Also, in assay [2], the “B1R Ant. r [10 μM] % Inhibition” value is given as 12%.
`CN(C)C(c1ccc(Cl)cc1)C1CCC(CNC(=O)COCCC2CCN(S(=O)(=O)c3ccccc3)CC2)CC1` (stereo not drawn) [Example 584]: in assay [1], the “5-HT (inhibition of reuptake of serotonin, % inhibition)” value came to 64%. Besides, the “B1R Ant. r [10 μM] % Inhibition” value in assay [2] was found to be 41%.
In the case of `COc1cc(C)c(S(=O)(=O)N2CCCC(OCC(=O)NCC3CCC(C(CCc4ccccc4)N(C)C)CC3)C2)c(C)c1C` (stereo not drawn) [Example 551], in assay [1], the “5-HT (inhibition of reuptake of serotonin, % inhibition)” value came to 85%. Besides, in assay [2], the “B1R Ant. r [10 μM] % Inhibition” value is on record as 36%.
Taken in the same sequence, the figures for `COc1ccc(S(=O)(=O)N2CCCCC2COCC(=O)NC2CCC(C(c3ccc(F)cc3)N(C)C)CC2)cc1OC` (stereo not drawn) [Example 555] were 86% and 0%.
Usually inhibition stands for the drop in the measured response relative to a control, in per cent. Turning to `CN(C)C(c1cccc(F)c1)C1CCC(CCNC(=O)COCCN(C)S(=O)(=O)c2ccc(Cl)cc2Cl)CC1` (stereo not drawn) [Example 126, 2-(2-(2,4-dichloro-N-methylphenylsulfonamido)ethoxy)-N-(2-(4-((dimethylamino)(3-fluorophenyl)methyl)cyclohexyl)ethyl)acetamide], the inhibition at 10 µM in assay [1] turned out to be 86%; in assay [2], 59%.
With `CN(C)C(CCc1ccccc1)C1CCC(CNC(=O)COCCN(C)S(=O)(=O)c2c(Cl)cccc2Cl)CC1` (stereo not drawn) [Example 476], the “5-HT (inhibition of reuptake of serotonin, % inhibition)” value in assay [1] (10 µM) came to 80%. For the same compound, the “B1R Ant. r [10 μM] % Inhibition” value in assay [2] came to 74%.
As for `COc1ccc(S(=O)(=O)N2Cc3ccccc3CC2COCC(=O)NCC2CCC(C(c3cccs3)N(C)C)CC2)cc1` (stereo not drawn) [Example 7, N-((4-((dimethylamino)(thiophen-2-yl)methyl)cyclohexyl)methyl)-2-((2-(4-methoxyphenylsulfonyl)-1,2,3,4-tetrahydroisoquinolin-3-yl)methoxy)acetamide], the results for the inhibition at 10 µM in assay [1] and in assay [2] were 92% and 27%, respectively.
On to `COc1ccc(S(=O)(=O)N2CCCCC2CCOCC(=O)NC2CCC(C(c3cccs3)N(C)C)CC2)cc1` (stereo not drawn) [Example 6, N-(4-((dimethylamino)(thiophen-2-yl)methyl)cyclohexyl)-2-(2-(1-(4-methoxyphenylsulfonyl)piperidin-2-yl)ethoxy)acetamide], for which the values for the inhibition at 10 µM in assay [1] and in assay [2] were 91% and 34%, respectively.
For the compound `CN(C)C(CCc1ccccc1)C1CCC(CNC(=O)COC2CCN(S(=O)(=O)c3ccccc3)C2)CC1` (stereo not drawn) [Example 573], the “5-HT (inhibition of reuptake of serotonin, % inhibition)” value in assay [1] stood at 100%. In assay [2], the “B1R Ant. r [10 μM] % Inhibition” value is recorded as 14%.
Take `COc1ccc(S(=O)(=O)N(C)CCOCC(=O)NC2CCC(C(c3ccc(F)cc3)N(C)C)CC2)cc1` (stereo not drawn) [Example 549]: in assay [1], the “5-HT (inhibition of reuptake of serotonin, % inhibition)” value came out at 81%. Further, the “B1R Ant. r [10 μM] % Inhibition” value in assay [2] amounted to 40%.
Turning to `COc1cc(C)c(S(=O)(=O)N(CCOCC(=O)NCC2CCC(C(c3ccc(F)cc3)N(C)C)CC2)Cc2ccccc2)c(C)c1C` (stereo not drawn) [Example 563], the “5-HT (inhibition of reuptake of serotonin, % inhibition)” value in assay [1] amounted to 90%. Besides, the “B1R Ant. r [10 μM] % Inhibition” value in assay [2] was −16%.
With `CN(C)C(CCc1ccccc1)C1CCC(CNC(=O)COC2CCN(S(=O)(=O)c3cccc(C(F)(F)F)c3)C2)CC1` (stereo not drawn) [Example 552], the “5-HT (inhibition of reuptake of serotonin, % inhibition)” value in assay [1] is 90%. Further, in assay [2], the “B1R Ant. r [10 μM] % Inhibition” value is given as 26%.
Take `CN(C)C(c1cccs1)C1CCC(CCNC(=O)COC2CCN(S(=O)(=O)c3cccc(C(F)(F)F)c3)C2)CC1` (stereo not drawn) [Example 96, N-(2-(4-((dimethylamino)(thiophen-2-yl)methyl)cyclohexyl)ethyl)-2-(1-(3-(trifluoromethyl)phenylsulfonyl)pyrrolidin-3-yloxy)acetamide]: the inhibition at 10 µM in assay [1] was found to be 81%; in assay [2] it was 26%.
In the case of `CCN(CCOCC(=O)NCCC1CCC(C(c2cccs2)N(C)C)CC1)S(=O)(=O)c1c(C)cc(OC)c(C)c1C` (stereo not drawn) [Example 103, N-(2-(4-((dimethylamino)(thiophen-2-yl)methyl)cyclohexyl)ethyl)-2-(2-(N-ethyl-4-methoxy-2,3,6-trimethylphenylsulfonamido)ethoxy)acetamide], the figures for the inhibition at 10 µM in assay [1] and in assay [2] were 95% and 84%, respectively.
Regarding `CN(C)C(CCc1ccccc1)C1CCC(CNC(=O)COCCN(C)S(=O)(=O)c2c(Cl)cccc2Cl)CC1` (stereo not drawn) [Example 580], the “5-HT (inhibition of reuptake of serotonin, % inhibition)” value in assay [1] (10 µM) came out at 77%. Moreover, in assay [2], the “B1R Ant. r [10 μM] % Inhibition” value is 44%.
`CN(C)C(c1ccc(Cl)cc1)C1CCC(CCNC(=O)COCCN(C)S(=O)(=O)c2ccc(OC(F)(F)F)cc2)CC1` (stereo not drawn) [Example 575]: the “5-HT (inhibition of reuptake of serotonin, % inhibition)” value in assay [1] was 77%. The “B1R Ant. r [10 μM] % Inhibition” value in assay [2] is 26%.
For `CN(C)C(CCc1ccccc1)C1CCC(CNC(=O)COC2CCCN(S(=O)(=O)c3ccccc3)C2)CC1` (stereo not drawn) [Example 558], in that order: 92% and 12%.
Regarding `COc1ccc(S(=O)(=O)N2CCCC2COCC(=O)NCC2CCC(C(c3cccs3)N(C)C)CC2)cc1` (stereo not drawn) [Example 105, N-((4-((dimethylamino)(thiophen-2-yl)methyl)cyclohexyl)methyl)-2-((1-(4-methoxyphenylsulfonyl)pyrrolidin-2-yl)methoxy)acetamide], the inhibition at 10 µM is 95% in assay [1] and 24% in assay [2].
With `COc1cc(C)c(S(=O)(=O)N(CCOCC(=O)NCC2CCC(C(c3ccc(Cl)cc3)N(C)C)CC2)Cc2ccccc2)c(C)c1C` (stereo not drawn) [Example 560], the “5-HT (inhibition of reuptake of serotonin, % inhibition)” value in assay [1] came out at 47%. For the same compound, the “B1R Ant. r [10 μM] % Inhibition” value in assay [2] was −5%.
`COc1cc(C)c(S(=O)(=O)N(CCOCC(=O)NCC2CCC(C(CCc3ccccc3)N(C)C)CC2)Cc2ccccc2)c(C)c1C` (stereo not drawn) [Example 562]: in assay [1], the “5-HT (inhibition of reuptake of serotonin, % inhibition)” value is given as 96%. In addition, in assay [2], the “B1R Ant. r [10 μM] % Inhibition” value stood at 23%.
As for `CN(C)C(c1ccccc1)C1CCC(CNC(=O)COCCN(C)S(=O)(=O)c2ccc(F)cc2)CC1` (stereo not drawn) [Example 112, N-((4-((dimethylamino)(phenyl)methyl)cyclohexyl)methyl)-2-(2-(4-fluoro-N-methylphenylsulfonamido)ethoxy)acetamide], the inhibition at 10 µM in assay [1] came to 85%; in assay [2] it was 5%.
In the case of `CN(C)C(c1cccs1)C1CCC(CNC(=O)COC2CCN(S(=O)(=O)c3ccc(F)cc3)C2)CC1` (stereo not drawn) [Example 97, N-((4-((dimethylamino)(thiophen-2-yl)methyl)cyclohexyl)methyl)-2-(1-(4-fluorophenylsulfonyl)pyrrolidin-3-yloxy)acetamide], the inhibition at 10 µM in assay [1] came to 91%; in assay [2], 28%.
As for `CN(C)C(c1cccc(F)c1)C1CCC(NC(=O)COC2CCCCC2N(C)S(=O)(=O)c2ccc(Cl)c(Cl)c2)CC1` (stereo not drawn) [Example 132, 2-(2-(3,4-dichloro-N-methylphenylsulfonamido)cyclohexyloxy)-N-(4-((dimethylamino)(3-fluorophenyl)methyl)cyclohexyl)acetamide], the inhibition at 10 µM in assay [1] came out at 83%; in assay [2], 2%.
Turning to `COc1cc(C)c(S(=O)(=O)N(CCOCC(=O)NCCC2CCC(C(c3ccc(Cl)cc3)N(C)C)CC2)Cc2ccccc2)c(C)c1C` (stereo not drawn) [Example 576], the “5-HT (inhibition of reuptake of serotonin, % inhibition)” value in assay [1] is 73%. Besides, the “B1R Ant. r [10 μM] % Inhibition” value in assay [2] worked out at 3%.
Regarding `COc1ccc(S(=O)(=O)N2CCCCC2COCC(=O)NCC2CCC(C(c3ccc(F)cc3)N(C)C)CC2)cc1OC` (single isomer, unassigned) [Example 534], the “5-HT (inhibition of reuptake of serotonin, % inhibition)” value in assay [1] (10 µM) is reported as 88%. Moreover, the “B1R Ant. r [10 μM] % Inhibition” value in assay [2] is −4%.
For `COc1ccc(S(=O)(=O)N2CCCCC2COCC(=O)NCC2CCC(C(CCc3ccccc3)N(C)C)CC2)c(OC)c1` (stereo not drawn) [Example 420], in that order: 74% and 2%.
`CN(C)C(c1cccs1)C1CCC(CNC(=O)COCCN(C)S(=O)(=O)c2ccc(Cl)cc2Cl)CC1` (stereo not drawn) [Example 8, 2-(2-(2,4-dichloro-N-methylphenylsulfonamido)ethoxy)-N-((4-((dimethylamino)(thiophen-2-yl)methyl)cyclohexyl)methyl)acetamide]: the inhibition at 10 µM in assay [1] was determined as 81%; in assay [2], 62%.
With `CN(C)C(c1ccc(F)cc1)C1CCC(CNC(=O)COCCC2CCN(S(=O)(=O)c3ccccc3)CC2)CC1` (stereo not drawn) [Example 583], the “5-HT (inhibition of reuptake of serotonin, % inhibition)” value in assay [1] was found to be 77%. Also, the “B1R Ant. r [10 μM] % Inhibition” value in assay [2] came out at 20%.
